What all share (type): cell-based
Experiment [1] deals with T1, 17β-hydroxysteroid dehydrogenase type 1 (17β-HSD type 1) (Homo sapiens, UniProt P14061).
T1 construct: expressed in transfected cells; host or cells: MCF-7
T1 sequence (P14061 1-328): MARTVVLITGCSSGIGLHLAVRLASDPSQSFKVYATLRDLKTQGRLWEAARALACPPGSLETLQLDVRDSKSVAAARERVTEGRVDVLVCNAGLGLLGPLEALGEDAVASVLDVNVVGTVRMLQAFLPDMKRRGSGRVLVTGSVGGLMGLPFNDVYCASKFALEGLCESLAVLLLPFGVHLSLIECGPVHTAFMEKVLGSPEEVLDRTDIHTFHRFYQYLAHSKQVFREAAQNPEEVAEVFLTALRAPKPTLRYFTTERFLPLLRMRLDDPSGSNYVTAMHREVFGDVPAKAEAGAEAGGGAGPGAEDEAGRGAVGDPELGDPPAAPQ
As to the kind of experiment: Inhibition of 17β-HSD type 1 in MCF-7 cells stably expressing the isoenzyme (tritium labeled estrone conversion, HPLC). The note with it: MCF-7 cells expressing 17β-HSD type 1, 2 nM tritium labeled estrone; for inhibition at 1 µM / inhibition at 10 µM: MCF7; for inhibition at 1 µM / % Inhibition HSD1 1 μM: 1 μM test compound; for inhibition at 1 µM: read-out: % Inhibition HSD1 1 μM; for inhibition at 10 µM / % Inhibition HSD1 10 μM: 10 μM test compound; for inhibition at 10 µM: read-out: % Inhibition HSD1 10 μM. In a few lines: (§1)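 Compounds are tested at two concentrations on MCF-7 cells carrying a single 17β-HSD isoenzyme, with 2 nM tritiated estrone, estradiol or androstenedione as type 1, 2 or 3 substrate. Percent inhibition reflects lower conversion relative to a compound-free control.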

Experiment [2] has as its target T2, 17β-hydroxysteroid dehydrogenase type 2 (17β-HSD type 2) (Homo sapiens, UniProt P37059).
T2 construct: expressed in transfected cells; host or cells: MCF-7
T2 sequence (P37059 1-387): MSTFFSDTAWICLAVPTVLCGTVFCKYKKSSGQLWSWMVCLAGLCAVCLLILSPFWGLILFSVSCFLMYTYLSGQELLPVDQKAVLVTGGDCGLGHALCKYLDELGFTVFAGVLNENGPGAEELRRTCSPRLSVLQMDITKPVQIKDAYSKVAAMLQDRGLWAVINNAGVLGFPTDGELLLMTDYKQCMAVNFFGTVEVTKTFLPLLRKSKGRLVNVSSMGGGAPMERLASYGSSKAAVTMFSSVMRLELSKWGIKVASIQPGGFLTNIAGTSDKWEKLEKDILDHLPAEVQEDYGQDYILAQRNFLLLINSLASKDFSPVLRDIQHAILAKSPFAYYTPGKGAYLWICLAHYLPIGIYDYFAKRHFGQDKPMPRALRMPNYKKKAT
As to the kind of experiment: Inhibition of 17β-HSD type 2 in MCF-7 cells stably expressing the isoenzyme (tritium labeled estradiol conversion, HPLC). The note with it: MCF-7 cells expressing 17β-HSD type 2, 2 nM tritium labeled estradiol; for inhibition at 1 µM / inhibition at 10 µM: MCF7; for inhibition at 1 µM / % Inhibition HSD2 1 μM: 1 μM test compound; for inhibition at 1 µM: read-out: % Inhibition HSD2 1 μM; for inhibition at 10 µM / % Inhibition HSD2 10 μM: 10 μM test compound; for inhibition at 10 µM: read-out: % Inhibition HSD2 10 μM. In outline:
as §1

For experiment [3], the target named is T3, 17β-hydroxysteroid dehydrogenase type 3 (17β-HSD type 3) (Homo sapiens, UniProt P37058).
T3 construct: expressed in transfected cells; host or cells: MCF-7
T3 sequence (P37058 1-310): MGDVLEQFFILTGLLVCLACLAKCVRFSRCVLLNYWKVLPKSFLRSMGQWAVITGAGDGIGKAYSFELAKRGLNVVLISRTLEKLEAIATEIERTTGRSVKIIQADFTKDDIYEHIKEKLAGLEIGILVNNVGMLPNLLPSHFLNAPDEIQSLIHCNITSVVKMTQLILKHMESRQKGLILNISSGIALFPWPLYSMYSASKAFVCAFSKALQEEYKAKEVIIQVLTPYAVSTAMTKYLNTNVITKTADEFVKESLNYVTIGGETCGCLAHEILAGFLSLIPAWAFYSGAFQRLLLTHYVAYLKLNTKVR
As to the kind of experiment: Inhibition of 17β-HSD type 3 in MCF-7 cells stably expressing the isoenzyme (tritium labeled androstenedione conversion, HPLC). The note with it: MCF-7 cells expressing 17β-HSD type 3, 2 nM tritium labeled androstenedione; for inhibition at 1 µM / inhibition at 10 µM: MCF7; for inhibition at 1 µM / % Inhibition HSD3 1 μM: 1 μM test compound; for inhibition at 1 µM: read-out: % Inhibition HSD3 1 μM; for inhibition at 10 µM / % Inhibition HSD3 10 μM: 10 μM test compound; for inhibition at 10 µM: read-out: % Inhibition HSD3 10 μM. In a few lines: as §1

Results on 15 compounds are retold here after patent US7524853B2 (Solvay Pharmaceuticals B.V., priority 2003, dated 2009).

For `COc1cc(-c2nc3sc4c(O)cccc4c3c(=O)n2CC2CCCO2)c(Cl)c(OC)c1OC` (stereo not drawn) [No. 140, 2-(2-Chloro-3,4,5-trimethoxyphenyl)-8-hydroxy-3-(tetrahydrofuran-2-ylmethyl)-3H-benzo[4,5]thieno[2,3-d]pyrimidin-4-one], the values for the inhibition at 1 µM in experiment [1], in experiment [2] and in experiment [3] were 39.5%, 10.3% and 8.8%, respectively. Also, the values for the inhibition at 10 µM in experiment [1], in experiment [2] and in experiment [3] were 81%, 36.8% and 63.5%, respectively.
Regarding `COc1cc(-c2nc3sc4c(OC(C)=O)cccc4c3c(=O)n2CC(C)C)c(Br)c(OC)c1OC` [No. 118, Acetic acid 2-(2-bromo-3,4,5-trimethoxyphenyl)-3-isobutyl-4-oxo-3,4-dihydro-benzo[4,5]-thieno[2,3-d]pyrimidin-8-yl ester], the inhibition at 1 µM in experiment [1] worked out at 31%; in experiment [2] it was 23.6%; in experiment [3] it was 10.8%. Also, the inhibition at 10 µM in experiment [1] came to 51.5%; in experiment [2], 24.4%; in experiment [3], 24.4%.
`COc1cccc(-c2nc3sc4c(O)cccc4c3c(=O)n2Cc2ccccc2)c1` [No. 83, 3-Benzyl-8-hydroxy-2-(m-methoxyphenyl)-3H-benzo[4,5]thieno[2,3-d]pyrimidin-4-one]: the inhibition at 1 µM in experiment [1] amounted to 25.4%; in experiment [2] it was 26.1%; in experiment [3], 13.5%. The results for the inhibition at 10 µM in experiment [1], in experiment [2] and in experiment [3] were 26.3%, 60.1% and 21%, respectively.
With `CCCc1nc2sc3c(c2c(=O)n1Cc1ccc(Br)o1)CCC(Br)(Br)C3=O` [No. 104, 7,7-Dibromo-3-(5-bromofuran-2-ylmethyl)-2-propyl-6,7-dihydro-3H,5H-benzo[4,5]thieno[2,3-d]pyrimidine-4,8-dione], the inhibition at 1 µM is 20.2% in experiment [1], 26.6% in experiment [2] and -5% in experiment [3]. Further, the inhibition at 10 µM in experiment [1] came out at 42.6%; in experiment [2], 47.9%; in experiment [3], 51.4%.
On to `COCCn1c(-c2cccs2)nc2sc3c(c2c1=O)CCCC3` [No. 74, 3-(2-Methoxyethyl)-2-thiophen-2-yl-5,6,7,8-tetrahydro-3H-benzo[4,5]thieno[2,3-d]pyrimidin-4-one], for which the inhibition at 1 µM in experiment [1] was 11.7%; in experiment [2], 33.2%; in experiment [3], 8.3%. The inhibition at 10 µM is 12.2% in experiment [1], 26.1% in experiment [2] and 8.3% in experiment [3].
Consider `CC(=O)OCc1nc2sc3c(c2c(=O)n1Cc1ccccc1)CCCC3=O` [No. 30, Acetic acid 3-benzyl-4,8-dioxo-3,4,5,6,7,8-hexahydro-benzo[4,5]thieno[2,3-d]pyrimidin-2-ylmethyl ester], for which the inhibition at 1 µM is 25.4% in experiment [1], 20.2% in experiment [2] and -1.2% in experiment [3]. For the same compound, the inhibition at 10 µM in experiment [1] was found to be 39.7%; in experiment [2], 19.1%; in experiment [3] it was 16.3%.
Take `COc1cc(-c2nc3sc4c(c3c(=O)n2Cc2ccccc2)CCC(Br)C4=O)c(Br)c(OC)c1OC` (stereo not drawn) [No. 47, 3-benzyl-7-bromo-2-(2-bromo-3,4,5-trimethoxyphenyl)-6,7-dihydro-3H,5H-benzo[4,5]thieno[2,3-d]pyrimidine-4,8-dione]: the inhibition at 1 µM in experiment [1] is 16.1%; in experiment [2] it was 31.9%; in experiment [3] it was 39.7%. The inhibition at 10 µM was 63.2% in experiment [1], 59% in experiment [2] and 52.2% in experiment [3].
With `CCCCC(CC)c1nc2sc3c(O)cccc3c2c(=O)n1Cc1ccccc1` (stereo not drawn) [No. 663], in experiment [1], the “% Inhibition HSD1 1 μM” value is reported as 26.3% and the “% Inhibition HSD1 10 μM” value turned out to be 24.6%. In experiment [2], the “% Inhibition HSD2 1 μM” value is recorded as 37.4% and the “% Inhibition HSD2 10 μM” value is on record as 57.6%. For the same compound, in experiment [3], the “% Inhibition HSD3 1 μM” value was determined as 12.4% and the “% Inhibition HSD3 10 μM” value is on record as 45.6%.
On to `COc1cc(-c2nc3sc4c(c3c(=O)n2Cc2ccco2)CCCC4=O)cc(OC)c1OC` [No. 120, 3-Furan-2-ylmethyl-2-(3,4,5-trimethoxylphenyl)-6,7-dihydro-3H,5H-benzo[4,5]thieno[2,3-d]pyrimidine-4,8-dione], for which the inhibition at 1 µM in experiment [1] is 17.6%; in experiment [2], 19.9%; in experiment [3], 12.4%. In addition, the inhibition at 10 µM is 52.1% in experiment [1], 35.4% in experiment [2] and 38.4% in experiment [3].
For `COCc1nc2sc3c(c2c(=O)n1Cc1ccccc1)CCC(C=O)=C3Cl` [No. 34, 3-Benzyl-8-chloro-2-methoxymethyl-4-oxo-3,4,5,6-tetrahydro-benzo[4,5]thieno[2,3-d]pyrimidine-7-carbaldehyde], the inhibition at 1 µM in experiment [1] was 12.5%; in experiment [2], -1.5%; in experiment [3] it was 15.8%. Besides, the inhibition at 10 µM was found to be 64.2% in experiment [1], 25.3% in experiment [2] and 100% in experiment [3].
On to `COCc1nc2sc3c(c2c(=O)n1Cc1ccccc1)CCCC3` [No. 27, 3-Benzyl-2-methoxymethyl-5,6,7,8-tetrahydro-3H-benzo[4,5]thieno[2,3-d]pyrimidin-4-one], for which the values for the inhibition at 1 µM in experiment [1], in experiment [2] and in experiment [3] were 11.2%, 8.5% and -14.4%, respectively. Moreover, the inhibition at 10 µM in experiment [1] turned out to be 32.3%; in experiment [2], 7.2%; in experiment [3], 12.2%.
For the compound `CC(=O)Oc1c(Br)ccc2c1sc1nc(-c3ccccc3)n(Cc3ccccc3)c(=O)c12` [No. 93, Acetic acid 3-benzyl-7-bromo-4-oxo-2-phenyl-3,4-dihydro-benzo[4,5]thieno[2,3-d]pyrimidin-8-yl ester], the inhibition at 1 µM in experiment [1] came to 13.3%; in experiment [2] it was 43.2%; in experiment [3], 19.4%. The inhibition at 10 µM in experiment [1] was determined as 11.7%; in experiment [2], 57.7%; in experiment [3], 26.1%.
Turning to `O=c1c2c(nc(Cc3ccccc3)n1CCc1cccs1)sc1c(O)cccc12` [No. 641], in experiment [1], the “% Inhibition HSD1 1 μM” value was determined as 20.4% and the “% Inhibition HSD1 10 μM” value amounted to 35.0%. In experiment [2], the “% Inhibition HSD2 1 μM” value was 10.5% and the “% Inhibition HSD2 10 μM” value was determined as 36.9%. For the same compound, in experiment [3], the “% Inhibition HSD3 1 μM” value was determined as 13.2% and the “% Inhibition HSD3 10 μM” value was 55.7%.
Turning to `CCSC1=C(CO)CCc2c1sc1nc(-c3ccc(OC)cc3)n(Cc3ccccc3)c(=O)c21` [No. 19], the results for the inhibition at 1 µM in experiment [1], in experiment [2] and in experiment [3] were 10.2%, 4.9% and 32.7%, respectively. In addition, the inhibition at 10 µM was found to be 32% in experiment [1], 21.1% in experiment [2] and 100% in experiment [3].
Consider `CCCc1nc2sc3c(c2c(=O)n1Cc1ccco1)CCCC3=O` [No. 102, 3-(Furan-2-ylmethyl)-2-propyl-6,7-dihydro-3H,5H-benzo[4,5]thieno[2,3-d]pyrimidine-4,8-dione], for which the values for the inhibition at 1 µM in experiment [1], in experiment [2] and in experiment [3] were 14.8%, 13.6% and 6.7%, respectively. The figures for the inhibition at 10 µM in experiment [1], in experiment [2] and in experiment [3] were 57.5%, 18.6% and 51.2%, respectively.
